According to patent US20230090868A1, “ANTI-CD30 ANTIBODY-DRUG CONJUGATES AND THEIR USE FOR THE TREATMENT OF NON-HODGKIN LYMPHOMA” (Seagen Inc., priority 2020, published 2023):
Read-outs that look alike come from different tables or passages of the source.

Columns and labels:
[1] = cited from earlier work
P-gp [2] = molecular target: T1, P-gp (Homo sapiens, UniProt P08183); details: in vitro; cited from earlier work
R/R DLBCL = details: cited from earlier work
P-gp [3] = molecular target: T1, P-gp; details: controlled studies; cited from earlier work
[4] = single 25 mg dose with a high-fat meal, healthy subjects; cited from earlier work
[5] = Phase I trial dose-escalation phase: maximum tolerated dose (MTD) and dose-limiting toxicities; type: in vivo, human; details: lenalidomide in combination with BV; by mouth Days 1-21 of each 21-day cycle; rel/ref DLBCL patients
From the text: The maximum tolerated dose (MTh) was defined as the dose level immediately below the dose level at which 2 patients of a cohort (of 2 to 6 patients) experienced dose-limiting toxicity during the first cycle. Dose escalations proceeded until the MTD was reached.
Hematologic dose limiting toxicity (DLT) was defined as any of the following that occured during the first cycle that were attributed as possibly, probably, or definitely related to the study treatment: • Grade 4 neutropenia >7 day duration • Grade 4 infection with grade 3 or 4 neutropenia (life-threatening sepsis) • Grade 4 thrombocytopenia associated with life-threatening bleeding or requiring more than 1 transfusion • Treatment delay >14 days due to hematologic toxicity
Non-hematologic DLT was defined as any possibly, probably, or definitely related grade 3 or grade 4 non-hematologic toxicity that occured during the first cycle with the following specific exceptions: • Grade 3 or 4 nausea, vomiting, or anorexia that returns to Grade 1 prior to the start of Cycle 2 • Grade 3 metabolic abnormalities (e.g., hyperglycemia) • Grade 3 fatigue
Dose escalations proceeded as follows after the occurrence of dose-limiting toxicity (DLT):
Dose escalation occurred after all patients in the cohort completed the first cycle according to the following scheme: […]

[6] = tested on: xenograft models of Hodgkin disease; details: SCID mouse xenograft models of Hodgkin disease; cited from earlier work
CD30+ cell lines = details: in vitro; cited from earlier work

T1 sequence (P08183 whole entry): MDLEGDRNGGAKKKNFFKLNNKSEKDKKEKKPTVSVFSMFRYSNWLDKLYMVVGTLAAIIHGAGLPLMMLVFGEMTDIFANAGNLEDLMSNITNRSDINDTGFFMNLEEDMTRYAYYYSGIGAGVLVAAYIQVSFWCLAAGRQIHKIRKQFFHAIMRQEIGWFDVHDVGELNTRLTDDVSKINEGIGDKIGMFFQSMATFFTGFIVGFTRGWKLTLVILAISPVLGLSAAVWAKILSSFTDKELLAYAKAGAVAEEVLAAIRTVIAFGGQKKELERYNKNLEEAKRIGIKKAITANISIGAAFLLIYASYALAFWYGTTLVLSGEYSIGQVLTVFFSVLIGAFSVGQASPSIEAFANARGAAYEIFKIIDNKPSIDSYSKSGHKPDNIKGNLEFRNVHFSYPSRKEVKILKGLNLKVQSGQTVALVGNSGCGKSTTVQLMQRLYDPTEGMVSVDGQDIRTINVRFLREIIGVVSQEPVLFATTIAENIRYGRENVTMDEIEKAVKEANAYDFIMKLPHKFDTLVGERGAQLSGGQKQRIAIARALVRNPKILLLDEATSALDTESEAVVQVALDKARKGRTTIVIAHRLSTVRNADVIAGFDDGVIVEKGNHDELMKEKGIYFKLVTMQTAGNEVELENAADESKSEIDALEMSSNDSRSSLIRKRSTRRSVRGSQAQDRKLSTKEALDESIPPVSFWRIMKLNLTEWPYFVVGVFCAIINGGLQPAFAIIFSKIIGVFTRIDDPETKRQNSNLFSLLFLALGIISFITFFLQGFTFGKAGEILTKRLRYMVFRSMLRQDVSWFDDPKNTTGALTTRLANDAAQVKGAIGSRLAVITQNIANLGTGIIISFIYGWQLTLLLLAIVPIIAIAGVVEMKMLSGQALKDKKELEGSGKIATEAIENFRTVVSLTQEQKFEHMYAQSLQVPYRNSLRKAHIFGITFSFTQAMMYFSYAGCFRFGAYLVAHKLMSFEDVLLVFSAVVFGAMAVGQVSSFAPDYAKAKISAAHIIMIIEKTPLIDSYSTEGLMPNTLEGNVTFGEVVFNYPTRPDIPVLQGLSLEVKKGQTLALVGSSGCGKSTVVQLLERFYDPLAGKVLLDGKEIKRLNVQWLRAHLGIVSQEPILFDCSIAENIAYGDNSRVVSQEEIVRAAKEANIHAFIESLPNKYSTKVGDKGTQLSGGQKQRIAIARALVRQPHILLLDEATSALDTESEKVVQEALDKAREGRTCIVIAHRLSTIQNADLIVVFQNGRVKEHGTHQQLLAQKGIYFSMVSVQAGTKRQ

Row | Molecule | drug accumulation ([1]; multiple doses at the recommended dosage) | time post-dose at which maximum plasma concentrations occurred ([1]; single and multiple doses, subjects with MM or MDS, (approximately 0.5 to 6 hours)) [h] | substrate of P-gp (P-gp [2]) | median progression-free survival (PFS) (R/R DLBCL; GCB subjects, P=0.550) [weeks] | median progression-free survival (PFS) (R/R DLBCL; all subjects with R/R DLBCL, P=0.041) [weeks] | median progression-free survival (PFS) (R/R DLBCL; non-germinal-center B-cell-like (non-GCB) subjects, P=0.021) [weeks] | objective response rate (ORR) (R/R DLBCL; subjects with R/R DLBCL) [%] | PK interactions with P-gp substrates/inhibitors (P-gp [3]) | decrease in area under the concentration-time curve [4] [%] | decrease in maximum plasma concentration (Cmax) [4] [%] | maximum tolerated dose (MTD) [5] [mg] | antitumor activity [6] | growth arrest of CD30+ cell lines (CD30+ cell lines)
1 | Nc1cccc2c1CN(C1CCC(=O)NC1=O)C2=O (racemic) [lenalidomide, (RS)-3-(4-Amino-1-oxo-1,3-dihydro-2H-isoindol-2-yl)piperidine-2,6-dione] | does not result in drug accumulation | 1 | weak substrate | 10.1 | 13.6 | 15.1 | 27.5 | does not have clinically significant PK interactions | ~20 | ~50 | 20 |  | 
2 | cAC10: chimeric IgG1 monoclonal antibody that specifically binds CD30 |  |  |  |  |  |  |  |  |  |  |  | pronounced antitumor activity | induces growth arrest
